Data as given in patent publication US20240024273A1, “TOPICAL ADMINISTRATION OF 2-(DIETHYLAMINO)ETHYL 2-(4-ISOBUTYLPHENYL)PROPRIONATE FOR TREATMENT OF DISEASES” (TECHFIELDS PHARMA CO., LTD., priority 2020, published 2024).

Key:
[1] = tested on: osteoarthritis of the knee; test: Second Phase 2 study: WOMAC difficulty performing daily activities (functional ability) subscale score; format: in vivo, human; conditions: all subjects, Week 12
Source text: (§1) This is a Phase 2, multicenter, randomized, double blind (within dose), Ibuprofen-placebo controlled, parallel group, dose range finding study to evaluate the efficacy, safety, and PK of 2-(diethylamino)ethyl 2-(4-isobutylphenyl)propionate spray in adult subjects with clinically symptomatic OA of the knee. For subjects with bilateral knee pain, both knees will be treated, but the most symptomatic knee (ie, the most painful knee as measured by the Western Ontario and McMaster University Osteoarthritis Index [WOMAC® 3.1] pain subscale score at Screening) will be designated as the target knee for efficacy analyses. For subjects with unilateral knee pain, only the symptomatic (target) knee will be treated.
(§2) The VAS version of the WOMAC will be used for the Primary and Secondary Efficacy Endpoints. Efficacy endpoints will be assessed at Screening and Baseline (Day 1) and at the Week 2, Week 4, Week 8, and Week 12/EOS visits.
(§3) 4.9.2. Secondary Efficacy Endpoints: • 1. Change from Baseline in the WOMAC (VAS) pain subscale score for the target knee at 2, 8, and 12 weeks of treatment; • 2. Change from Baseline in the WOMAC (VAS) stiffness subscale scores for the target knee and WOMAC (VAS) functional ability subscale scores at 2, 4, 8, and 12 weeks of treatment; • 3. Change from Baseline in the overall WOMAC (VAS) score at 2, 4, 8, and 12 weeks of treatment; • 4. Subject's global assessment of disease status of the target knee at 2, 4, 8, and 12 weeks of treatment; • 5. Subject's global assessment of response to therapy of the target knee at 2, 4, 8, and 12 weeks of treatment; • 6. Amount of rescue medication (acetaminophen) consumed per day for target knee pain.
(§4) The Secondary Efficacy Endpoints, change from Baseline in the WOMAC subscale scores for pain, stiffness, and functional ability, and overall WOMAC score at 2, 4, 8, and 12 weeks of treatment, will be analyzed using the same methods as for the Primary Efficacy Endpoint.

[2] = tested on: osteoarthritis of the knee; test: Second Phase 2 study: WOMAC overall score; format: in vivo, human
Source text: as §1, §2, §3, §4

[3] = 17.5 mg/knee BID, Week 12, first 130 subjects
[4] = Week 12, 4.375 mg/knee BID (n = 23), first 130 subjects
[5] = Week 12, 8.75 mg/knee BID (n = 24), first 130 subjects
[6] = Week 12, 17.5 mg/knee BID (n = 19), first 130 subjects
[7] = all subjects, 4.375 mg/knee BID, n = 49, Week 12
[8] = all subjects, 8.75 mg/knee BID, n = 54, Week 12
[9] = all subjects, 17.5 mg/knee BID, n = 52, Week 12

SMILES: CCN(CC)CCOC(=O)C(C)c1ccc(CC(C)C)cc1 (stereo not shown) [2-(diethylamino)ethyl 2-(4-isobutylphenyl)propionate]
- WOMAC Difficulty Performing Daily Activities Subscale Scores, Changes from Baseline (LS Mean) ([1]; 8.75 mg/knee BID, n = 54): −27.9 mm
- WOMAC Difficulty Performing Daily Activities Subscale Scores, Different from oral ibuprofen (LS Mean) ([1]; 8.75 mg/knee BID, n = 54): −2.7 mm
- WOMAC Difficulty Performing Daily Activities Subscale Scores, Different from placebo (LS Mean) ([1]; 8.75 mg/knee BID, n = 54): −6.0 mm
- WOMAC Difficulty Performing Daily Activities Subscale Scores, Week 12 (LS Mean) ([1]; 8.75 mg/knee BID, n = 54): 32.6 mm
- WOMAC Difficulty Performing Daily Activities Subscale Scores, % of improvement from Oral Ibuprofen ([1]; 17.5 mg/knee BID, n = 52): −11.0%
- WOMAC Difficulty Performing Daily Activities Subscale Scores, % of improvement from Placebo ([1]; 17.5 mg/knee BID, n = 52): −15.3%
- WOMAC Difficulty Performing Daily Activities Subscale Scores, % of improvement from baseline ([1]; 17.5 mg/knee BID, n = 52): −52.5%
- WOMAC Difficulty Performing Daily Activities Subscale Scores, Changes from Baseline (LS Mean) ([1]; 17.5 mg/knee BID, n = 52): −31.4 mm
- WOMAC Difficulty Performing Daily Activities Subscale Scores, Different from placebo (LS Mean) ([1]; 17.5 mg/knee BID, n = 52): −9.5 mm
- WOMAC Difficulty Performing Daily Activities Subscale Scores, Week 12 (LS Mean) ([1]; 17.5 mg/knee BID, n = 52): 28.3 mm
- WOMAC overall, difference from oral ibuprofen [2, 3]: −15.2 mm
- WOMAC overall, difference from placebo [2, 3]: −18.2 mm
- efficacy vs oral ibuprofen (3×400 mg/day) ([2]; 17.5 mg/knee BID, all subjects): higher efficacy than oral ibuprofen (3×400 mg/day), but not significantly
- efficacy vs placebo ([2]; 17.5 mg/knee BID, all subjects): higher efficacy than placebo significantly
- WOMAC Overall Scores, Baseline (LS Mean) ([2]; 4.375 mg/knee BID (n = 23), first 130 subjects): 59.3 mm
- WOMAC Overall Scores, Baseline (LS Mean) ([2]; 8.75 mg/knee BID (n = 24), first 130 subjects): 60.7 mm
- WOMAC Overall Scores, Baseline (LS Mean) ([2]; 17.5 mg/knee BID (n = 19), first 130 subjects): 63.4 mm
- WOMAC Overall Scores, % of improvement from Oral Ibuprofen [2, 4]: −10.1%
- WOMAC Overall Scores, % of improvement from baseline [2, 4]: −43.2%
- WOMAC Overall Scores, % of improvement from placebo [2, 4]: −13.0%
- WOMAC Overall Scores, Changes from Baseline (LS Mean) [2, 4]: −25.6 mm
- WOMAC Overall Scores, Different from oral ibuprofen (LS Mean) [2, 4]: −4.1 mm
- WOMAC Overall Scores, Different from placebo (LS Mean) [2, 4]: −7.1 mm
- WOMAC Overall Scores, Week 12 (LS Mean) [2, 4]: 33.8 mm
- WOMAC Overall Scores, % of improvement from Oral Ibuprofen [2, 5]: −11.8%
- WOMAC Overall Scores, % of improvement from baseline [2, 5]: −45.1%
- WOMAC Overall Scores, % of improvement from placebo [2, 5]: −14.9%
- WOMAC Overall Scores, Changes from Baseline (LS Mean) [2, 5]: −27.4 mm
- WOMAC Overall Scores, Different from oral ibuprofen (LS Mean) [2, 5]: −5.9 mm
- WOMAC Overall Scores, Different from placebo (LS Mean) [2, 5]: −9.0 mm
- WOMAC Overall Scores, Week 12 (LS Mean) [2, 5]: 33.3 mm
- WOMAC Overall Scores, % of improvement from Oral Ibuprofen [2, 6]: −24.6%
- WOMAC Overall Scores, % of improvement from baseline [2, 6]: −57.7%
- WOMAC Overall Scores, % of improvement from placebo [2, 6]: −27.5%
- WOMAC Overall Scores, Changes from Baseline (LS Mean) [2, 6]: −36.6 mm
- WOMAC Overall Scores, Different from oral ibuprofen (LS Mean) [2, 6]: −15.2 mm
- WOMAC Overall Scores, Different from placebo (LS Mean) [2, 6]: −18.2 mm
- WOMAC Overall Scores, Week 12 (LS Mean) [2, 6]: 26.8 mm
- WOMAC Overall Scores, % of improvement from Oral Ibuprofen [2, 7]: −1.5%
- WOMAC Overall Scores, % of improvement from baseline [2, 7]: −42.8%
- WOMAC Overall Scores, % of improvement from placebo [2, 7]: −6.6%
- WOMAC Overall Scores, Changes from Baseline (LS Mean) [2, 7]: −25.4 mm
- WOMAC Overall Scores, Week 12 (LS Mean) [2, 7]: 34.0 mm
- WOMAC Overall Scores, % of improvement from Oral Ibuprofen [2, 8]: −4.6%
- WOMAC Overall Scores, % of improvement from baseline [2, 8]: −45.9%
- WOMAC Overall Scores, % of improvement from placebo [2, 8]: −9.7%
- WOMAC Overall Scores, Changes from Baseline (LS Mean) [2, 8]: −27.7 mm
- WOMAC Overall Scores, Different from oral ibuprofen (LS Mean) [2, 8]: −2.8 mm
- WOMAC Overall Scores, Different from placebo (LS Mean) [2, 8]: −6.4 mm
- WOMAC Overall Scores, Week 12 (LS Mean) [2, 8]: 32.7 mm
- WOMAC Overall Scores, % of improvement from Oral Ibuprofen [2, 9]: −10.6%
- WOMAC Overall Scores, % of improvement from baseline [2, 9]: −51.9%
- WOMAC Overall Scores, % of improvement from placebo [2, 9]: −15.7%
- WOMAC Overall Scores, Changes from Baseline (LS Mean) [2, 9]: −30.9 mm
- WOMAC Overall Scores, Different from oral ibuprofen (LS Mean) [2, 9]: −6.0 mm
- WOMAC Overall Scores, Different from placebo (LS Mean) [2, 9]: −9.6 mm
- WOMAC Overall Scores, Week 12 (LS Mean) [2, 9]: 28.6 mm
- average scores in all six subscales ([2]; high dose group, Week 12): below 30 mm
